{"source": "patent EP0126344A2", "about": "“Tripeptide esters of therapeutic agents” (ABBOTT LABORATORIES, priority 1983, dated 1984)", "key": {"[1]": {"tested_on": "Staph. aureus, strain 642a", "experiment": "In vivo activity: survival of infected mice, subcutaneous administration (Example 28)", "settings": "for ED50: Staphylococcus aureus, 642A, sc, 120 h, subcutaneous administration, mice infected with 100 x LD50 Staph. aureus, read-out: effective dose (ED50); for Mice Surviving: groups of ten mice, five days after infection", "description": "(§1) Eight groups of ten female CF-1 mice, each weighing 18-20 g. were supplied with food and water ad lib and injected intraperitoneally with a lethal dose (100 x LD50) of Staph. aureus, strain 642a. At 1 and 5 hours after intraperitoneal infection, the mice were administered by intraperitoneal injection equal doses of either erythromycin A (\"A\") or 4\"-L-leu-gly-L-pro-erythromycin A (\"B\") dissolved in a phosphate buffered saline solution.\nThe procedure of Example 25 was repeated except that the erythromycin A and 4\"-L-leu-gly-L-pro-erythromycin A were administered subcutaneously instead of intraperitoneally."}, "[2]": {"tested_on": "Staph. aureus, strain 642a", "experiment": "In vivo activity: survival of infected mice, oral administration (Example 29)", "settings": "after 0.5 ml homogenized milk; for ED50: Staphylococcus aureus, 642A, 120 h, oral administration, mice infected with 100 x LD50 Staph. aureus, read-out: effective dose (ED50); for Mice Surviving: groups of ten mice, five days after infection", "description": "as §1\nThe procedure of Example 25 was repeated except that the erythromycin A and 4\"-L-leu-gly-L-pro erythromycin A were administered orally, and that 0.5 ml of homogenized milk was administered orally to each mouse prior to administration of the test compound to minimize acid degredation of the test compound."}, "[3]": {"tested_on": "Staph. aureus, strain 642a", "experiment": "In vivo activity: survival of infected mice, intraperitoneal administration (Example 27)", "settings": "for ED50: Staphylococcus aureus, 642A, ip, 120 h, intraperitoneal injection, mice infected with 100 x LD50 Staph. aureus, read-out: effective dose (ED50); for Mice Surviving: 5 days after infection", "description": "as §1"}, "[4]": {"tested_on": "gastrointestinal tissue", "experiment": "Gastrointestinal motility in anesthetized dogs, strain gauge transducers (Example 30)", "settings": "1.0 mg./kg. intravenously; strain gauge readings; result in words", "protocol": "Female beagle dogs having a weight of 7.0 to 11.0 kg. were anesthetized with pentobarbital and maintained in surgical anesthesia by supplemental I.V. injections of pentobarbital as needed. The body temperature of each dog was maintained at 36-37° C. The trachea was cannulated and the animal maintained on a respirator at 12 strokes/minute with a volume of 200 ml./stroke. The femoral artery was cannulated for blood pressure recording and both femoral veins were cannulated for intravenous injections and blood collection. Each dog was then prepared for gastrointestinal motility determinations as follows. […]\nAfter an equilibration period of 15 minutes, a dose of 50 pg/.kg. of methacholine was administered intravenously to the dog over a period of thirty seconds and the strain gauge readings were monitored to obtain a standard measurement of reactivity of the gastrointestinal tract.\nThe strain gauge readings were again monitored to determine effect of the test compound on motility of the gastrointestinal tissue."}}}
{"smiles": "CC[C@H]1OC(=O)[C@H](C)[C@@H](O[C@H]2C[C@@](C)(OC)[C@@H](OC(=O)[C@@H]3CCCN3C(=O)CNC(=O)[C@@H](N)CC(C)C)[C@H](C)O2)[C@H](C)[C@@H](O[C@@H]2O[C@H](C)C[C@H](N(C)C)[C@H]2O)[C@](C)(O)C[C@@H](C)C(=O)[C@H](C)[C@@H](O)[C@]1(C)O", "note": "[B, 4\"-L-leu-gly-L-pro-erythromycin A]", "values": [{"measurement": "ED50", "setting": "[1]", "result": 3.1, "unit": "mg/kg"}, {"measurement": "Mice Surviving", "setting": "[1]; total dose 0.6 mg/kg subcutaneous", "result": 2}, {"measurement": "Mice Surviving", "setting": "[1]; total dose 2.6 mg/kg subcutaneous", "result": 5}, {"measurement": "Mice Surviving", "setting": "[1]; total dose 10.5 mg/kg subcutaneous", "result": 6}, {"measurement": "Mice Surviving", "setting": "[1]; total dose 41.1 mg/kg subcutaneous", "result": 10}, {"measurement": "ED50", "setting": "[2]", "result": 181, "unit": "mg/kg"}, {"measurement": "Mice Surviving", "setting": "[2]; total dose 3.2 mg/kg oral", "result": 0}, {"measurement": "Mice Surviving", "setting": "[2]; total dose 12.8 mg/kg oral", "result": 0}, {"measurement": "Mice Surviving", "setting": "[2]; total dose 51.3 mg/kg oral", "result": 0}, {"measurement": "Mice Surviving", "setting": "[2]; total dose 205 mg/kg oral", "result": 6}, {"measurement": "ED50", "setting": "[3]", "result": 0.6, "unit": "mg/kg"}, {"measurement": "Mice Surviving", "setting": "[3]; total dose 0.6 mg/kg intraperitoneal, groups of ten mice", "result": 5}, {"measurement": "Mice Surviving", "setting": "[3]; total dose 2.6 mg/kg intraperitoneal, groups of ten mice", "result": 10}, {"measurement": "Mice Surviving", "setting": "[3]; total dose 10.5 mg/kg intraperitoneal, groups of ten mice", "result": 10}, {"measurement": "Mice Surviving", "setting": "[3]; total dose 41.1 mg/kg intraperitoneal, groups of ten mice", "result": 10}]}
{"smiles": "CC[C@H]1OC(=O)[C@H](C)[C@@H](O[C@H]2C[C@@](C)(OC)[C@@H](O)[C@H](C)O2)[C@H](C)[C@@H](O[C@@H]2O[C@H](C)C[C@H](N(C)C)[C@H]2O)[C@](C)(O)C[C@@H](C)C(=O)[C@H](C)[C@@H](O)[C@]1(C)O", "note": "[Erythromycin Lactobionate, erythromycin A lactobionate]", "values": [{"measurement": "effect of the test compound on motility of the gastrointestinal tissue", "setting": "[4]", "result": "pronounced stimulation of the stomach, duodenum, jejunum and ileum, with no apparent effect on the colon"}]}
{"smiles": "CC[C@H]1OC(=O)[C@H](C)[C@@H](O[C@H]2C[C@@](C)(OC)[C@@H](O)[C@H](C)O2)[C@H](C)[C@@H](O[C@@H]2O[C@H](C)C[C@H](N(C)C)[C@H]2O)[C@](C)(O)C[C@@H](C)C(=O)[C@H](C)[C@@H](O)[C@]1(C)O", "note": "[A, erythromycin A]", "values": [{"measurement": "ED50", "setting": "[1]", "result": 2.8, "unit": "mg/kg"}, {"measurement": "Mice Surviving", "setting": "[1]; total dose 0.4 mg/kg subcutaneous", "result": 1}, {"measurement": "Mice Surviving", "setting": "[1]; total dose 1.9 mg/kg subcutaneous", "result": 1}, {"measurement": "Mice Surviving", "setting": "[1]; total dose 7.5 mg/kg subcutaneous", "result": 10}, {"measurement": "Mice Surviving", "setting": "[1]; total dose 30 mg/kg subcutaneous", "result": 10}, {"measurement": "ED50", "setting": "[2]", "result": 110, "unit": "mg/kg"}, {"measurement": "Mice Surviving", "setting": "[2]; total dose 2.3 mg/kg oral", "result": 0}, {"measurement": "Mice Surviving", "setting": "[2]; total dose 9.4 mg/kg oral", "result": 0}, {"measurement": "Mice Surviving", "setting": "[2]; total dose 37.5 mg/kg oral", "result": 0}, {"measurement": "Mice Surviving", "setting": "[2]; total dose 150 mg/kg oral", "result": 7}, {"measurement": "ED50", "setting": "[3]", "result": "< 0.4", "unit": "mg/kg"}, {"measurement": "Mice Surviving", "setting": "[3]; total dose 0.4 mg/kg intraperitoneal, groups of ten mice", "result": 9}, {"measurement": "Mice Surviving", "setting": "[3]; total dose 1.9 mg/kg intraperitoneal, groups of ten mice", "result": 9}, {"measurement": "Mice Surviving", "setting": "[3]; total dose 7.5 mg/kg intraperitoneal, groups of ten mice", "result": 10}, {"measurement": "Mice Surviving", "setting": "[3]; total dose 30 mg/kg intraperitoneal, at 1 and 5 hours after infection, groups of ten female CF-1 mice", "result": 10}]}
